In paper PMC8279484 (Journal of Medicinal Chemistry, 2021):

Tests used:
THP-1 LUCIA monocytes = test: Extrinsic cytotoxicity: LDH release after LPS challenge; type: cell-based, human; settings: for % LDH release relative to LPS: LPS 24 h
Method: We investigated the potential cytotoxicity of all candidate sLXms by assaying LDH release.[50] The response to LPS was arbitrarily set to 100%, and values were expressed relative to this. As previously reported by others, LPS provokes LDH release.[51] […] Ultimately, untreated cells defined the spontaneous cell release thresholds.
Lactate dehydrogenase (LDH) was assayed in cell supernatants to investigate possible cytotoxicity of the lead compound. LDH is rapidly released into the culture medium after disruption of the plasma membrane.[67],[69] After 24 h of exposure to sLXms, vehicle, or controls, followed by LPS stimulation, as described above, THP-1-Lucia NF-κB-cell supernatants were collected and LDH was assayed. Cytotoxicity was evaluated relative to vehicle controls. Maximum releasable LDH was determined in cells lysed with 2% Triton-X-100 (Sigma-Aldrich, Ireland). LDH levels were assessed by reading the absorbance at 490 nm (protein) and 690 nm (background noise), using a spectrophotometer (SPECTRAMAX M2, Molecular Devices (U.K.) Limited).

wild-type HEK-293 cells = test: Intracellular calcium flux in wild-type HEK-293 (specificity control); type: cell-based, human
Method: To explore the mechanism of action through which the sLXm lead compound exerts the effects seen here, its interaction with the ALX/FPR2 receptor was investigated and agonist-induced intracellular calcium transients were measured using an engineered cell line stably overexpressing the ALX/FPR2 receptor and the Gαq subunit coupled to it (Figure S6). Wild-type HEK cells were used as controls, to verify the specificity of the agonism toward ALX/FPR2, as previously reported.[36] Briefly, prior to cell plating, sterile 96-well plates (black-sided with optically clear glass flat bottoms) were PDL-coated overnight. Subsequently, 2 × 10^5 wild-type cells and overexpressed cells/well were cultured for 18 h in DMEM complete media (containing Ca^2+ and Mg^2+) to facilitate adherence prior to labeling with Fluo-4 dye. After 1 h of incubation at 37 °C with Fluo-4, cells were gently washed twice and placed in 100% Hanks’ balanced salt solution (HBSS; 37 °C) before reading the fluorescence (485/535 nm), using a spectrophotometer conjugated with an injection system (Clariostar BMG LABTECH plate reader), allowing addition to the cells of controls (1 mM ATP, a GPCR purinergic agonist, 2 nM Wp, a synthetic ALX/FPR2 agonist) or experimental treatments [10 pM, 1 nM, and 100 nM LXA41 or (R)-6].

IL-8 = test: LPS-induced IL-8 release from THP-1 Lucia monocytes (multiplex electrochemiluminescence); type: cell-based, human; settings: Dex 1 μM; 1 1 nM; (R)-6 concentration not given
Method: (§1) LXA41 and all of the tested sLXms were dissolved in ethanol and further diluted in a culture medium (final ethanol concentration 0.1%; equivalent concentrations were used as the vehicle control). Prior to in vitro experiments, THP-1-Lucia NF-κB cells were harvested and plated at 1 × 10^5 cells/well on 96-well plates and left to settle in the incubator at 37 °C, 95% humidity, and 5% CO2, in 0.1% FBS-containing media, pretreated for 30 min with increasing doses of LXA41, sLXms (from 10^–12 to 10^–6 M), or appropriate controls, followed by stimulation with 50 ng/mL LPS for 24 h. Untreated (Unt) or vehicle-treated (Veh) cells were used as negative controls; 1 pM (1R)-5, the (1R)-epimer of the benzo-mimetic, was used as a positive control for any aromatic mimetic; and, finally, we compared the observed effects to the conventional glucocorticoid dexamethasone (Dex) treatment, at 1 μM.
(§2) After 24 h of exposure to LXA41, sLXms, or vehicle, followed by LPS stimulation (50 ng/mL), as described above, THP-1-Lucia NF-κB-cell supernatants were collected and cleared by centrifugation. Concentrations of IFN-γ, IL-1β, IL-6, IL-8, IL-10, IL-12p70, and TNF-α in culture supernatants were assessed by electro-chemi-luminescent detection, using a commercially available human 96-well plate “multiplex” (several analytes in the same well) kit for tissue culture samples, according to the manufacturers’ guidelines.

IL-6 = test: LPS-induced IL-6 release from THP-1 Lucia monocytes (multiplex electrochemiluminescence); type: cell-based, human; settings: for IC50: Homo sapiens, THP-1; for IC50 / Imax, IL-6 release: LPS 50 ng/mL, 24 h; for Imax, IL-6 release: concentration–response
Method: as §1, §2
(§3) The “coding” of the heat-map indicates the arbitrary criteria to assign points to each single PD component (efficacy = Imax or Emax; potency = IC50 or EC50; slope = HS) to generate a final (aggregate) relative PD score. If a single PD component was greater than the reference level (x > 1), then the single-component relative score was arbitrarily set to +1 (light green) or +2 (dark green). If a single PD component was equal to the reference level (x = 1), then the single-component relative score was arbitrarily set to 0 (gray). If a single PD component was smaller than the reference level (x < 1), then the single-component relative score was arbitrarily set to −1 (light red) or −2 (dark red). If the curve of a single PD component was best fitting to a flat line (x = 0), then the single-component relative score was arbitrarily set to −4 (purple) (Table S1).

IL-1β = test: LPS-induced IL-1β release from THP-1 Lucia monocytes (multiplex electrochemiluminescence); type: cell-based, human; settings: for IC50: Homo sapiens, THP-1
Method: as §1, §2, §3

NF-κB [1] = test: TNF-α-induced NF-κB reporter (pNF-κB-SEAP) assay in vSMCs; type: cell-based, mouse; settings: (R)-6 1 nM, TNF-α 1 ng/mL 24 h; TNF-α alone 5-fold
Method: Mouse primary vascular SMCs were cultured at 37 °C in a humidified atmosphere of 95% air/5% CO2 and maintained in Dulbecco’s modified Eagle’s medium (DMEM; Life Technologies) supplemented with 25 mmol/L glucose with 10% (v/v) FBS. For treatments, media contained only 1% FBS.
NF-κB activity was determined by measuring secreted alkaline phosphatase in the culture supernatant using the SEAP Reporter Gene Assay System (Roche Australia). Cell experiments were performed six to eight times, and the values presented are the mean ± SEM from independent experiments.

NF-κB [2] = tested on: NF-κB; design: method as in PMID 30213823; settings: LXA4 1 0.1 nM; 2 1 nM; cited from earlier work

Row | SMILES | attenuation of LPS-induced toxicity (LDH) (THP-1 LUCIA monocytes; LPS 50 ng/mL, 24 h, 1 pM–1 μM) | % LDH release relative to LPS (THP-1 LUCIA monocytes; highest dose of (R)-6) | % LDH release relative to LPS (THP-1 LUCIA monocytes; lowest dose of (R)-6) | Ca^2+ mobilization in wild-type HEK-293 cells (wild-type HEK-293 cells) | enhancement of LPS-induced secretion of IL-8 (IL-8) | IC50 (IL-6) | Imax, IL-6 release (IL-6) | PD score, IL-6 release (IL-6; relative to LXA4 (1)) | rel. slope, IL-6 release (IL-6; relative to LXA4 (1)) | IC50 (IL-1β; LPS 50 ng/mL, 24 h) | Imax, IL-1β release (IL-1β; concentration–response, LPS 50 ng/mL, 24 h) | PD score, IL-1β release (IL-1β; relative to LXA4 (1)) | rel. slope, IL-1β release (IL-1β; relative to LXA4 (1)) | NF-κB activity, fold change relative to vehicle (NF-κB [1]) | effect on TNF-α-stimulated NF-κB activity (NF-κB [2])
1 | CCCCC[C@@H](O)c1nc2ccccc2nc1/C=C/[C@@H](O)[C@@H](O)CCCC(=O)OC [(R)-6, Methyl (5S,6R,E)-5,6-Dihydroxy-8-(3-((R)-1-hydroxyhexyl)quinoxalin-2-yl)oct-7-enoate] | 1.3- to 2.4 fold | 77 ± 10% | 42 ± 4% | no calcium release was induced | 2.5 fold | 1 pM | 84 ± 2% | −2 | 0.7 | 1 pM | 73 ± 2% | −2 | −0.03 | 3 fold | 
2 | CCCCC[C@H](O)/C=C/C=C\C=C\C=C\[C@@H](O)[C@@H](O)CCCC(=O)O [Compound 1, LXA4] |  |  |  | without effect | 2.5 fold | 1 pM | 99 ± 1% |  |  | 1 pM |  |  |  |  | reduced TNF-α-stimulated NF-κB activity
